± gives the uncertainty stated by the source.
Assay: xn = mol fraction of the nth substance listed

CC[n+]1ccn(C)c1.O=S(=O)([N-]S(=O)(=O)C(F)(F)F)C(F)(F)F + COC(=O)OC
viscosity [mPa·s], 101.3 kPa
Settings	288.15 K	293.15 K	298.15 K	303.15 K	308.15 K	313.15 K
x1 = 0.00265	0.69 ± 0.015	0.644 ± 0.014	0.604 ± 0.013	0.567 ± 0.012	0.534 ± 0.012	0.504 ± 0.011
x1 = 0.005572	0.717 ± 0.016	0.67 ± 0.015	0.627 ± 0.014	0.588 ± 0.013	0.554 ± 0.012	0.523 ± 0.011
x1 = 0.006266	0.73 ± 0.016	0.681 ± 0.015	0.637 ± 0.014	0.599 ± 0.013	0.563 ± 0.012	0.532 ± 0.012
x1 = 0.006515	0.73 ± 0.016	0.682 ± 0.015	0.637 ± 0.014	0.598 ± 0.013	0.563 ± 0.012	0.531 ± 0.012
x1 = 0.008405	0.748 ± 0.016	0.698 ± 0.015	0.653 ± 0.014	0.612 ± 0.013	0.576 ± 0.013	0.543 ± 0.012
x1 = 0.01068	0.778 ± 0.017	0.724 ± 0.016	0.676 ± 0.015	0.634 ± 0.014	0.596 ± 0.013	0.562 ± 0.012
x1 = 0.01231	0.795 ± 0.017	0.74 ± 0.016	0.691 ± 0.015	0.648 ± 0.014	0.609 ± 0.013	0.573 ± 0.013
x1 = 0.01323	0.813 ± 0.018	0.757 ± 0.017	0.707 ± 0.015	0.662 ± 0.014	0.623 ± 0.014	0.587 ± 0.013
x1 = 0.01407	0.821 ± 0.018	0.763 ± 0.017	0.713 ± 0.016	0.668 ± 0.015	0.628 ± 0.014	0.591 ± 0.013
x1 = 0.01462	0.823 ± 0.018	0.766 ± 0.017	0.716 ± 0.016	0.671 ± 0.015	0.63 ± 0.014	0.594 ± 0.013
x1 = 0.01829	0.861 ± 0.019	0.801 ± 0.017	0.747 ± 0.016	0.699 ± 0.015	0.656 ± 0.014	0.618 ± 0.014
x1 = 0.01968	0.873 ± 0.019	0.812 ± 0.018	0.757 ± 0.017	0.708 ± 0.015	0.664 ± 0.015	0.626 ± 0.014
x1 = 0.02012	0.879 ± 0.019	0.817 ± 0.018	0.762 ± 0.017	0.713 ± 0.016	0.669 ± 0.015	0.63 ± 0.014
x1 = 0.02014	0.878 ± 0.019	0.816 ± 0.018	0.76 ± 0.017	0.712 ± 0.016	0.667 ± 0.015	0.628 ± 0.014
x1 = 0.02562	0.928 ± 0.02	0.861 ± 0.019	0.804 ± 0.018	0.751 ± 0.016	0.704 ± 0.015	0.662 ± 0.014
x1 = 0.03021	0.956 ± 0.021	0.886 ± 0.019	0.824 ± 0.018	0.769 ± 0.017	0.72 ± 0.016	0.676 ± 0.015
x1 = 0.03102	0.964 ± 0.021	0.893 ± 0.02	0.83 ± 0.018	0.774 ± 0.017	0.725 ± 0.016	0.68 ± 0.015
x1 = 0.03106	0.961 ± 0.021	0.89 ± 0.019	0.828 ± 0.018	0.773 ± 0.017	0.723 ± 0.016	0.68 ± 0.015
x1 = 0.03348	0.982 ± 0.021	0.91 ± 0.02	0.846 ± 0.018	0.79 ± 0.017	0.739 ± 0.016	0.694 ± 0.015
x1 = 0.03766	1.018 ± 0.022	0.943 ± 0.021	0.877 ± 0.019	0.818 ± 0.018	0.765 ± 0.017	0.718 ± 0.016
x1 = 0.04567	1.086 ± 0.024	1.005 ± 0.022	0.934 ± 0.02	0.871 ± 0.019	0.814 ± 0.018	0.764 ± 0.017
x1 = 0.04728	1.111 ± 0.024	1.029 ± 0.022	0.945 ± 0.021	0.881 ± 0.019	0.824 ± 0.018	0.773 ± 0.017
x1 = 0.05348	1.15 ± 0.025	1.064 ± 0.023	0.988 ± 0.022	0.92 ± 0.02	0.86 ± 0.019	0.807 ± 0.018
x1 = 0.05932	1.205 ± 0.026	1.113 ± 0.024	1.033 ± 0.023	0.962 ± 0.021	0.898 ± 0.02	0.841 ± 0.018

CO/N=C(\C(=O)N[C@@H]1C(=O)N2C(C(=O)[O-])=C(CSc3nc(=O)c(=O)[n-]n3C)CS[C@H]12)c1csc(N)n1.[Na+].[Na+] + CCCCCC[n+]1ccc(C)cc1.[Br-] + O
viscosity [mPa·s], 100 kPa
Settings	x1 = 0.0003495, x2 = 0	x1 = 0.0008732, x2 = 0	x1 = 0.001391, x2 = 0	x1 = 0.002502, x2 = 0	x1 = 0.00312, x2 = 0	x1 = 0.003888, x2 = 0	x1 = 0.004767, x2 = 0	x1 = 0.005484, x2 = 0
288.15 K	1.196 ± 0.049	1.273 ± 0.052	1.365 ± 0.056	1.604 ± 0.066	1.745 ± 0.072	1.964 ± 0.081	2.205 ± 0.091	2.45 ± 0.1
293.15 K	1.053 ± 0.043	1.12 ± 0.046	1.2 ± 0.049	1.399 ± 0.057	1.527 ± 0.063	1.701 ± 0.07	1.918 ± 0.079	2.122 ± 0.087
298.15 K	0.935 ± 0.038	0.994 ± 0.041	1.062 ± 0.044	1.231 ± 0.051	1.348 ± 0.055	1.495 ± 0.061	1.674 ± 0.069	1.858 ± 0.076
303.15 K	0.829 ± 0.034	0.885 ± 0.036	0.945 ± 0.039	1.1 ± 0.045	1.195 ± 0.049	1.323 ± 0.054	1.48 ± 0.061	1.638 ± 0.067
308.15 K	0.744 ± 0.031	0.794 ± 0.033	0.849 ± 0.035	0.982 ± 0.04	1.07 ± 0.044	1.184 ± 0.049	1.322 ± 0.054	1.455 ± 0.06

CC[n+]1ccn(C)c1.F[B-](F)(F)F + CC(=O)c1ccccc1
Settings	viscosity [mPa·s]
293.15 K, 100 kPa, x2 = 0	42.7 ± 8.5

CCCC[n+]1ccn(C)c1.[I-] + CCO
298.15 K, 100 kPa
Settings	electrical conductivity [S/m]
x1 = 0.009029	0.254 ± 0.015
x1 = 0.1006	1.47 ± 0.088
x1 = 0.2076	1.74 ± 0.1

CC[n+]1ccn(C)c1.F[B-](F)(F)F + CC#N
Settings	viscosity [mPa·s]
293.15 K, 100 kPa, x2 = 0.1787	25.2 ± 2.5
298.15 K, 100 kPa, x2 = 0.8301	1.14 ± 0.12
303.15 K, 101 kPa, x1 = 0.0999	0.71 ± 0.071
303.15 K, 101 kPa, x1 = 0.2	1.31 ± 0.13
303.15 K, 101 kPa, x1 = 0.2977	2.18 ± 0.22
303.15 K, 101 kPa, x1 = 0.3999	3.51 ± 0.35
303.15 K, 101 kPa, x1 = 0.4999	5.29 ± 0.53
303.15 K, 101 kPa, x1 = 0.5991	7.84 ± 0.79
303.15 K, 101 kPa, x1 = 0.7013	11 ± 1.1
303.15 K, 101 kPa, x1 = 0.8003	15.3 ± 1.5
303.15 K, 101 kPa, x1 = 0.9009	21 ± 2.1
303.15 K, 101 kPa, x1 = 1	28 ± 2.8
313.15 K, 100 kPa, x2 = 0.2803	10.5 ± 1.1
313.15 K, 100 kPa, x2 = 0.3682	7.5 ± 0.75
313.15 K, 101 kPa, x1 = 0.0999	0.638 ± 0.064
313.15 K, 101 kPa, x1 = 0.2	1.15 ± 0.12
313.15 K, 101 kPa, x1 = 0.2977	1.89 ± 0.19
313.15 K, 101 kPa, x1 = 0.3999	2.95 ± 0.3
313.15 K, 101 kPa, x1 = 0.4999	4.34 ± 0.44
313.15 K, 101 kPa, x1 = 0.5991	6.21 ± 0.62
313.15 K, 101 kPa, x1 = 0.7013	8.64 ± 0.87
313.15 K, 101 kPa, x1 = 0.8003	11.7 ± 1.2
313.15 K, 101 kPa, x1 = 0.9009	15.6 ± 1.6
313.15 K, 101 kPa, x1 = 1	20.4 ± 2.1
323.15 K, 100 kPa, x2 = 0	18.6 ± 1.9
323.15 K, 100 kPa, x2 = 0.2803	8.36 ± 0.84
323.15 K, 100 kPa, x2 = 0.3682	6.1 ± 0.61
323.15 K, 100 kPa, x2 = 0.7116	1.6 ± 0.16
323.15 K, 101 kPa, x1 = 0.0999	0.575 ± 0.058
323.15 K, 101 kPa, x1 = 0.2	1.02 ± 0.1
323.15 K, 101 kPa, x1 = 0.2977	1.67 ± 0.17
323.15 K, 101 kPa, x1 = 0.3999	2.52 ± 0.25
323.15 K, 101 kPa, x1 = 0.4999	3.64 ± 0.36
323.15 K, 101 kPa, x1 = 0.5991	5.11 ± 0.51
323.15 K, 101 kPa, x1 = 0.7013	6.95 ± 0.7
323.15 K, 101 kPa, x1 = 0.8003	9.17 ± 0.92
323.15 K, 101 kPa, x1 = 0.9009	12 ± 1.2
323.15 K, 101 kPa, x1 = 1	15.3 ± 1.5
333.15 K, 100 kPa, x2 = 0.2803	6.82 ± 0.69
333.15 K, 100 kPa, x2 = 0.7116	1.41 ± 0.14
333.15 K, 101 kPa, x1 = 0.0999	0.522 ± 0.052
333.15 K, 101 kPa, x1 = 0.2	0.917 ± 0.092
333.15 K, 101 kPa, x1 = 0.2977	1.48 ± 0.15
333.15 K, 101 kPa, x1 = 0.3999	2.2 ± 0.22
333.15 K, 101 kPa, x1 = 0.4999	3.13 ± 0.31
333.15 K, 101 kPa, x1 = 0.5991	4.34 ± 0.44
333.15 K, 101 kPa, x1 = 0.7013	5.76 ± 0.58
333.15 K, 101 kPa, x1 = 0.8003	7.47 ± 0.75
333.15 K, 101 kPa, x1 = 0.9009	9.51 ± 0.96
333.15 K, 101 kPa, x1 = 1	12.1 ± 1.2
343.15 K, 100 kPa, x2 = 0.3682	4.28 ± 0.43
343.15 K, 100 kPa, x2 = 0.7116	1.26 ± 0.13
343.15 K, 100 kPa, x2 = 0.8301	0.719 ± 0.072
